Data from patent US8119638B2, “Compositions and uses of ET743 for treating cancer” (Pharma Mar, S.A., priority 2007, dated 2012).
Entries after “also recorded” stand apart in the source; their conditions may differ. Read-outs that look alike come from different tables or passages of the source.

Tests used:
[1] = test system: sc B 16 tumor; experiment: sc B 16 tumor model in male rats, dexamethasone pre-treatment plus ET743; settings: Day 14, q2dx5, iv; for Vol. (tumor volume): preliminary results
Protocol: The sc B 16 tumor model in male rats was used to compare dexamethasone pre-treated (3 mg/kg total dose; −15 min.), ET743 (90 μg/kg TD) animals to ET alone on a q2dx5, iv, schedule.

[2] = test system: advanced/metastatic soft tissue sarcoma (STS) and gastrointestinal stromal tumor (GIST); experiment: Example 1: trials with 24 h iv continuous infusion every 3 or 4 weeks in STS and GIST patients; format: in vivo, human; set-up: tolerability of treatment / safety/toxicities observed: dose or concentration left out as unconfirmed; settings: for evaluable patients with stable disease or minor responses: after 2 cycles of therapy
[3] = test system: advanced and/or metastatic cancers refractory to previous treatments; settings: cited from earlier work
[4] = test system: advanced and/or metastatic cancers refractory to previous treatments; experiment: Clinical trials using the method of the invention: plasma levels and objective responses; format: in vivo, human
Protocol: The administration is performed in cycles, in the preferred application method, an intravenous infusion of ET734 is given to the patients the first week of each cycle, the patients are allowed to recover for the remainder of the cycle. The preferred duration of each cycle is of either 3 or 4 weeks; multiple cycles can be given as needed. The drug may also be administered each of the first days of each cycle. Dose delays and/or dose reductions and schedule adjustments are performed as needed depending on individual patient tolerance of treatments, in particular does reductions are recommended for patients with higher than normal serum levels of liver transaminases or alkaline phosphatase, or bilirubin.
Definitions for patient responses are adopted from WHO Common Toxicity Criteria and the responses determined following standard medical practice in the field.

[5] = for recommended dose level (RD): patients
Source text: The method consists of administration of drug by intravenous infusion over a period of 72 hrs or less at the recommended dose level (RD) with or without combination with other therapeutic agents.
The Recommended Dose (RD) is the highest dose which can be safely administered to a patient producing tolerable, manageable and reversible toxicity according to the Common Toxicity Criteria established by the National Cancer Institute (USA), with no more than 2 out of 6 patients presenting any dose limiting toxicities (DLT). Guidelines for cancer therapy frequently call for administration of chemotherapeutic agents at the highest safe dose at which toxicity is manageable in order to achieve maximum efficacy (DeVita, V. T. Jr., Hellman, S, and Rosenberg, S. A., Cancer: Principles and Practice of Oncology, 3rd ed., 1989, Lipincott, Philadelphia).

[6] = test system: advanced/metastatic soft tissue sarcoma; experiment: Example 3: trial with 24 h iv continuous infusion every 3 weeks in pretreated sarcoma patients; format: in vivo, human
Protocol: Data was analyzed from a trial with 24 h iv continues infusion of ET 743 every 3 weeks on 20 pretreated advanced/metastatic soft tissue sarcoma patients, with all except two patients being treated at a dose level of 1500 μg/m^2
35 Soft tissue sarcoma (STS)
22 patients had bulky disease at study entry, with 56% of disease progression under prior regime
age 16 to 71 years (median 45 yrs)
performance status 0 (0-2) (ECOG criteria)
[…] number of prior chemotherapy treatments 2 (1-7)
Most patients had received as prior chemotherapy treatments Anthracyclines and alkylators

[7] = test system: xenografts of breast cancer, non-small cell lung, melanoma and ovarian cancer; settings: cited from earlier work
[8] = test system: advanced/metastatic breast cancer; experiment: Example 2: trial with 24 h iv continuous infusion every 3 weeks in pretreated breast cancer patients; format: in vivo, human
Protocol: Data was analyzed from a trial with 24 h iv continues infusion of ET 743 every 3 weeks on 20 pretreated advanced/metastatic breast cancer patients, at a dose level of 1500 μg/m^2.
all presenting measurable disease and progressing at study entry age 33 to 64 years (median 50 yrs)
performance status 0-1 (ECOG criteria)
[…] number of involved organs: 2 (range 1-6)

[9] = test system: advanced/metastatic soft tissue sarcoma; experiment: Example 3: trial with 24 h iv continuous infusion every 3 weeks in pretreated sarcoma patients; format: in vivo, human; settings: 34 evaluable patients
[10] = 24 h iv continuous infusion every 3 or 4 weeks
[11] = 56 cycles administered, 1500 μg/m^2 24 h infusion every 3 weeks

Structure (SMILES): C[C@@H]1C[C@H]2[C@@H]3CCC4=CC(=O)C=C[C@]4(C)[C@@]3(F)[C@@H](O)C[C@]2(C)[C@@]1(O)C(=O)CO [DEX, dexamethasone]
- BW (body weight) [1]: 217 grams
- Vol. (tumor volume) [1]: 17,252 mm^3
- nausea ([2]; dexamethasone as a prophylactic anti emetic with ET 743 24 h infusion): essentially eliminated

Structure (SMILES): COc1cc2c(cc1O)CCN[C@]21CS[C@@H]2c3c(OC(C)=O)c(C)c4c(c3[C@H](COC1=O)N1[C@@H]2[C@H]2c3c(cc(C)c(OC)c3O)C[C@@H]([C@@H]1O)N2C)OCO4 [ET743, ecteinascidin 743]
- patient response (case reported in June 98) ([3]; breast cancer, dose level of 1800 microgram m2): breast cancer response
- patient response (previously reported case) ([3]; melanoma patient, 1 hr infusion): response in a melanoma patient
- objective responses ([4]; advanced and/or metastatic cancers refractory to previous treatments: soft tissue, bone and gastrointestinal stromal sarcoma, breast cancer and melanoma): Objective responses were obtained
- clinical marker response ([4]; ovarian cancer): positive clinical marker response
- plasma levels ([4]; patients at RD): appropriate plasma levels were achieved
- activity ([4]; variety of suboptimal schedules, advanced ocular melanoma and mesothelioma): Evidence of activity
- Vol. (tumor volume) [1]: 15,243 mm^3
- recommended dose level (RD) ([5]; 3 hr intravenous infusions): 1650 microgram per m2 body surface area
- recommended dose level (RD) ([5]; 3 hr intravenous infusions, listed as ET-743): 1650 microgram per m2 body surface
- recommended dose level (RD) ([5]; 24 hr intravenous infusions): 1500 microgram per m2 of body surface area
- dose limiting toxicities (DLTs) ([5]; human, in vivo): myelosuppression and malaise
- doses with too large a fraction of patients presenting DLT, too toxic for safe administration ([5]; human, in vivo): ≥ 1800 microgram per m2
- patients presenting severe dose limiting toxic responses ([5]; human, in vivo): 2 out of 4
- therapeutic window / toxicity ([5]; human, in vivo): positive therapeutic window with manageable toxicity
- RD for this schedule ([5]; intravenous infusion over 5 consecutive days, 24 hr daily): 1625 microgram per m2 of body surface area
- RD for this schedule ([5]; intravenous infusion over 72 hr): 1050 microgram per m2 of body surface area
- Acute, reversible transaminitis, grade 3 or 4 toxicities reported per cycle ([6]; 137 cycles administered): 44%
- Asthenia (grade 2/3), number reported per cycle ([6]; 137 cycles administered): 13
- Asthenia (grade 2/3), reported per cycle (percent) ([6]; 137 cycles administered): 23%
- Thrombocytopenia, grade 3 or 4 toxicities reported per cycle ([6]; 137 cycles administered): 5%
- febrile neutropenia, grade 3 or 4 toxicities reported per cycle ([6]; 137 cycles administered): 6.5%
- Neutropenia, grade 3 or 4 toxicities reported per cycle ([6]; 137 cycles administered, 1500 μg/m^2 24 h infusion every 3 weeks): 34%
- responses in osteo sarcomas ([6]; osteo sarcoma patients): 2 out of 3
- safety/toxicities observed [2, 10]: Myelosuppression; also recorded: Temporary/asymptomatic transaminitis; also recorded: Fatigue
- tolerability of treatment [2, 10]: very good
- evaluable patients with stable disease or minor responses ([2]; STS patients with prior chemotherapy treatment): 4 out of 12
- evaluable patients with stable disease or minor responses ([2]; STS patients without any prior chemotherapy treatment): 6 out of 10
- activity by histology ([2]; liposarcoma, leiomyo sarcoma, and synovial sarcoma): preliminary evidence of activity
- action in animal models [7]: promising action
- patients achieving disease stabilization ([8]; 16 evaluable patients): Six
- partial responses (number of patients) ([8]; 16 evaluable patients, pleuropulmonary and thoracic skin involvement, no primary resistance to either pretreatment drug): Two
- Asthenia (grade 2/3), number reported per cycle [8, 11]: 13
- Asthenia (grade 2/3), reported per cycle (percent) [8, 11]: 23%
- Neutropenia, grade 3 or 4 toxicities reported per cycle (percent) [8, 11]: 50%
- Neutropenia, number of grade 3 or 4 toxicities reported per cycle [8, 11]: 25
- Reversible transaminitis, grade 3 or 4 toxicities reported per cycle (percent) [8, 11]: 60%
- Reversible transaminitis, number of grade 3 or 4 toxicities reported per cycle [8, 11]: 34
- Thrombocytopenia, grade 3 or 4 toxicities reported per cycle (percent) [8, 11]: 2%
- Thrombocytopenia, number of grade 3 or 4 toxicities reported per cycle [8, 11]: 4
- patients with sustained decrease in CA 15-3 ([8]; among the stabilized patients): two
- disease stabilizations (number) [9]: 11
- duration of most disease stabilizations [9]: ≥ 3 months
- minor responses (number) [9]: 3
- minor responses which became post surgical complete response [9]: one
- partial responses (number) [9]: 4
- partial responses (percent) [9]: 11.7%
- partial responses which became post surgical complete response [9]: two
